Assays:
[1] = target: T1, AGE-BSA (Bos taurus, UniProt P02769); experiment: In-vitro AGE breaking activity by ELISA; type: biochemical, Bovine; conditions: 37° C., 24 hours
T1 construct: Bovine serum albumin (fraction V) (BSA); from tissue; host or cells: bovine serum (fraction V); glycated in house with 1.6 M glucose at 37 °C for 16 weeks
Experimental: AGE breaking activity has been confirmed by the screening procedure as mentioned below:
Methods of experiment: Elisa (Enzyme Linked Immunosorbent Assay)
160 mg/ml of protein, bovine serum albumin, BSA and 1.6M glucose sugar were dissolved in phosphate buffered saline, PBS. Sodium azide was added at 0.02% concentration as a preservative. The solution was filtered asceptically through a […] filter and kept for aging at 37° C. for 16 weeks. After 16 weeks the solution was dialyzed against PBS, aliquoted and stored at −20° C.
To determine the AGE breaking activity, 10 μg/ml of the 16 weeks AGE-BSA was incubated with different concentrations of the test compounds at 37° C. for 24 hours and AGE breaking activity of the test compounds by ELISA was determined.
ELISA was performed as follows
1. Different concentrations of 16 weeks AGE-BSA were coated on a microtiter plate as standard. Each concentration is coated in triplicates.
2. The test samples were coated on microtiter plate at a concentration of 5 ng to 20 ng per well in triplicates
3. The plate was incubated at 37° C. for one hour.
4. After incubation the plate was washed with PBST (PBS with 0.05% Tween 20).
5. Blocking with 5% skimmed milk in PBS at 37° C. for one hour was done.
6. The plate was washed with PBST.
7. Primary antibody against AGE-BSA was added and the plate is incubated at 37° C. for one hour.
8. The plate was washed with PBST
9. Secondary antibody anti rabbit HRPO (Horse-Radish Per Oxidase) conjugate was added and the plate is incubated at 37° C. for one hour.
10. The plate was washed with PBST.
11. Colour development with OPD (orthophenylenediamine dihydrochloride) and hydrogen peroxide was done.
12. OD (optical density) at (450 nm reading-620 nm reading) was measured after incubation at 37° C. for 15 minutes with Microplate ELISA Reader
The breaker activity of the compounds were determined by the following formula: [formula]
OD450-620Control=Absorbance of 20 ng AGE-BSA after incubation at 37° C. for 24 hours without test compound
OD450-620Test=Absorbance of 20 ng AGE-BSA after incubation at 37° C. for 24 hours with required concentration of test compound
Using specific examples, the % AGE breaking activity was calculated and recorded in Table 2.

[2] = Free radical scavenging activity on ABTS radical cation; type: biochemical
Experimental: This method measures the relative ability of free radical scavenging substances to scavenge the ABTS^.+ i.e. 2,2-Azino-bis-(3-ethyl benzo thiazoline-6-sulfonate) radical cation as compared to a standard amount of standard or free radical scavengers antioxidants. Incubation of ABTS with Peroxidase (metmyoglobin) and hydrogen peroxide results in the production of radical cation ABTS^.+. This species is blue-green in colour and can be detected at 730 nm. Antioxidants or free radical scavengers in the added sample that causes suppression of the color to a degree that is proportional to their concentration.
Preparation of Buffer Solutions
A. Phosphate Citrate Buffer (pH 5.0). 48.5 ml of 0.1M citric acid with sufficient 0.2M disodium hydrogen phosphate to produce 100 ml.
B. Phosphate Buffer Saline (PBS): Dissolve 40.0 g of NaCl, 1.0 g of KCl, 1.0 g of KH2PO4 and 3.05 g of Na2HPO4 in 1 liter milli-Q water. Dilute 200 ml of above solution to 1 liter with milli-Q water (pH 7.4-7.6).
C. 3 μM stock solution of Peroxidase was prepared in phosphate buffer saline pH 7.4(PBS).
D. 1.08 mM stock solution of Hydrogen peroxide was prepared in phosphate buffer saline pH 7.4 (PBS).
Preparation of ABTS Stock Solution
1 tablet (10 mg) was dissolved in phosphate citrate buffer (pH 5.0).
Preparation of ABTS Working Solution
5.0 ml of ABTS stock solution was diluted with PBS to 20 ml.
Preparation of Horse Radish Peroxidase Stock Solution
320 μg of the enzyme was dissolved in 2.5 ml of PBS.
Preparation of Hydrogen Peroxide (1.08 mM) Solution
12 μl of Hydrogen Peroxide (30% w/v) was diluted to 100 ml with PBS. […]
Preparation of ABTS Radical Stock Solution
To 18 ml of ABTS stock solution, 100 μl of Horseradish Peroxidase stock solution was added.
As soon as 1.5 ml of hydrogen peroxide solution was added to the above solution, blue-green colour of the ABTS radicals appeared. This solution was incubated at 30° C. for 30 min.
Preparation of Control Solution
980 μl of ABTS radical stock solution was added to an eppendorf tube. To it was added 100 μl of various PBS solution.
Preparation of test Solution
980 μl of ABTS radical stock solutions were added to different eppendorf tubes. To it were added 100 μl of various concentrations of drug solution.
Measurement of Absorbance (O.D)
The absorbance of control and test samples was recorded immediately at 730 nm taking PBS as blank.
Calculation: The percent antioxidant activity was calculated according to the formula. % Antioxidant activity=[O.D of test sample/O.D of control*100]−100.

T1 sequence (P02769 25-607): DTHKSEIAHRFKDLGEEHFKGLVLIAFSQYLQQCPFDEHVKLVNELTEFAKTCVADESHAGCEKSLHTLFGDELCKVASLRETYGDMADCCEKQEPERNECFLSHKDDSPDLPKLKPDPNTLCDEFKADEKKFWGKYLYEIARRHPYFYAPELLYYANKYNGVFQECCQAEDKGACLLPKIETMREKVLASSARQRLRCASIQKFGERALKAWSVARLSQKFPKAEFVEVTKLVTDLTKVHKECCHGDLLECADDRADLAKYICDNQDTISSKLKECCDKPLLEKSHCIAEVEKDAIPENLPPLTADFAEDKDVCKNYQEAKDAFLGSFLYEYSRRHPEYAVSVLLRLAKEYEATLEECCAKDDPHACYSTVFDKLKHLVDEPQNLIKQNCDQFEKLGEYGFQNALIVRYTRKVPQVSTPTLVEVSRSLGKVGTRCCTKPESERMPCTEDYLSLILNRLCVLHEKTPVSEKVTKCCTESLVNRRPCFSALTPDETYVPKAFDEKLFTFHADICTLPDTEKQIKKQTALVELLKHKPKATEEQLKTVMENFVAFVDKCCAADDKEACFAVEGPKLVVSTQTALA

Compound: COCCNC(=O)c1ccc[n+](CC(=O)NC2CC2)c1.[Cl-] [Compound 40, 1-(2-cyclopropylamino-2-oxoethyl)-3-(2-methoxyethylaminocarbonyl)-pyridinium chloride]
- % Breakage ([1]; 10 mM test compound): 12.38%

Compound: CC(C)NC(=O)C[n+]1cccc(C(=O)NNS(C)(=O)=O)c1.[Cl-] [Compound 43, 1-(2-isopropylamino-2-oxoethyl)-3-(2-methylsulfonylhydrazinocarbonyl)-pyridinium chloride]
- % Breakage ([1]; 10 mM test compound): 10.85%

Compound: Cc1ccc(C(=O)NNC(=O)c2ccc[n+](CC(=O)c3cccs3)c2)c[n+]1CC(=O)c1cccs1.[Cl-].[Cl-] [Compound 49, 1-[1-(2-thien-2′yl-2-oxoethyl)-6-methyl-3-carbonylpyridinium]-2-[1-(2-Thien-2′-yl-2-oxoethyl)-3-carbonylpyridinium]hydrazine dichloride]
- % Breakage ([1]; 2.5 mM test compound): 85.67%

Compound: O=C(NCCOC(=O)c1ccccc1)c1ccc[n+](CC(=O)c2ccc(Cl)cc2Cl)c1.[Br-] [Compound 8, 1-(2-(2′,4′-dichlorophenyl)-2-oxoethyl)-3-(2-(benzoyloxy)ethylamino-carbonyl)pyridinium bromide]
- Relative Free Radical Scavenging Activity (%) on ABTS ([2]; 11.5 μM): 40.8%
- Relative Free Radical Scavenging Activity (%) on ABTS ([2]; 23.0 μM): 53.7%
- Relative Free Radical Scavenging Activity (%) on ABTS ([2]; 46.0 μM): 72.6%
- Relative Free Radical Scavenging Activity (%) on ABTS ([2]; 92.5 μM): 81.2%
- Relative Free Radical Scavenging Activity (%) on ABTS ([2]; 925 μM): 100%

Compound: O=C(NCCOC(=O)c1ccccc1)c1cc[n+](CC(=O)c2cccs2)cc1.[Br-] [Compound 18, 1-(2-thien-2′-yl-2-oxoethyl)-4-(2-(benzoyloxy)ethylaminocarbonyl)pyridinium bromide]
- Relative Free Radical Scavenging Activity (%) on ABTS ([2]; 11.5 μM): 41.8%
- Relative Free Radical Scavenging Activity (%) on ABTS ([2]; 23.0 μM): 59.5%
- Relative Free Radical Scavenging Activity (%) on ABTS ([2]; 46.0 μM): 75.2%
- Relative Free Radical Scavenging Activity (%) on ABTS ([2]; 92.5 μM): 91.0%
- Relative Free Radical Scavenging Activity (%) on ABTS ([2]; 925 μM): 100%

Compound: CCOC(=O)C1CCCN1C(=O)C[n+]1cccc(C(=O)NNS(C)(=O)=O)c1.[Cl-] (stereo not drawn) [Compound 52, 1-(2-(2-ethoxycarbonylpyrrolidin-1-yl)-2-oxoethyl)-3-(methanesulfonyl hydrazinocarbonyl)pyridinium chloride]
- % Breakage ([1]; 10 mM test compound): 25.34%

Compound: O=C1CCCC(CCNNC(=O)c2ccc[n+](CC(=O)Nc3ccccc3)c2)C1.[Br-] (stereo not drawn) [Compound 35, 1-(2-phenylamino-2-oxoethyl)-3-({2-(1-oxo-3-cyclohexyl)-ethyl}-hydrazinocarbonyl}pyridinium bromide]
- Relative Free Radical Scavenging Activity (%) on ABTS ([2]; 11.5 μM): 50.5%
- Relative Free Radical Scavenging Activity (%) on ABTS ([2]; 23.0 μM): 63.4%
- Relative Free Radical Scavenging Activity (%) on ABTS ([2]; 46.0 μM): 80.9%
- Relative Free Radical Scavenging Activity (%) on ABTS ([2]; 92.5 μM): 90.6%
- Relative Free Radical Scavenging Activity (%) on ABTS ([2]; 925 μM): 100%

Compound: CCOC(=O)C[n+]1cccc(C(=O)NCCOC(=O)c2ccccc2)c1.[Br-] [Compound 7, 1-(2-ethoxy-2-oxoethyl)-3-(2-(benzoyloxy)ethylaminocarbonyl)pyridinium bromide]
- % Breakage ([1]; 20 mM test compound): 36%

Compound: O=C(CCC1CCCCC1)NNC(=O)c1ccc[n+](CC(=O)c2cccs2)c1.[Br-] [Compound 34, 1-(2-thien-2′-yl-2-oxoethyl)-3-((2-(1-oxo-3-cyclohexyl)-ethyl)-hydrazinocarbonyl)-pyridinium bromide]
- Relative Free Radical Scavenging Activity (%) on ABTS ([2]; 11.5 μM): 50.3%
- Relative Free Radical Scavenging Activity (%) on ABTS ([2]; 23.0 μM): 53.8%
- Relative Free Radical Scavenging Activity (%) on ABTS ([2]; 46.0 μM): 65.4%
- Relative Free Radical Scavenging Activity (%) on ABTS ([2]; 92.5 μM): 80.4%
- Relative Free Radical Scavenging Activity (%) on ABTS ([2]; 925 μM): 100%

Compound: NC(=O)c1cccnc1 [Niacinamide, reference compound]
- Relative Free Radical Scavenging Activity (%) on ABTS ([2]; 11.5 μM): 0.0%
- Relative Free Radical Scavenging Activity (%) on ABTS ([2]; 23.0 μM): 2.2%
- Relative Free Radical Scavenging Activity (%) on ABTS ([2]; 46.0 μM): 3.8%
- Relative Free Radical Scavenging Activity (%) on ABTS ([2]; 92.5 μM): 3.8%
- Relative Free Radical Scavenging Activity (%) on ABTS ([2]; 925 μM): 9.2%

Compound: O=C(C[n+]1cccc(C(=O)NNS(=O)(=O)Cc2ccccc2)c1)c1ccccc1.[Br-] [Compound 31, 1-(2-phenyl-2-oxoethyl)-3-((phenylmethyl)sulfonyl hydrazinocarbonyl)pyridinium bromide]
- Relative Free Radical Scavenging Activity (%) on ABTS ([2]; 11.5 μM): 41.6%
- Relative Free Radical Scavenging Activity (%) on ABTS ([2]; 23.0 μM): 57.7%
- Relative Free Radical Scavenging Activity (%) on ABTS ([2]; 46.0 μM): 66.9%
- Relative Free Radical Scavenging Activity (%) on ABTS ([2]; 92.5 μM): 99.2%
- Relative Free Radical Scavenging Activity (%) on ABTS ([2]; 925 μM): 100%

Compound: O=C(C[n+]1cccc(C(=O)c2ccccc2)c1)c1ccccc1.[Br-] [Compound 98, 1-(2-Phenyl-2-oxoethyl)-3-(1-phenyl-1-oxomethyl)pyridinium bromide]
- Relative Free Radical Scavenging Activity (%) on ABTS ([2]; 11.5 μM): 7.1%
- Relative Free Radical Scavenging Activity (%) on ABTS ([2]; 23.0 μM): 26.9%
- Relative Free Radical Scavenging Activity (%) on ABTS ([2]; 46.0 μM): 51.1%
- Relative Free Radical Scavenging Activity (%) on ABTS ([2]; 92.5 μM): 78.6%
- Relative Free Radical Scavenging Activity (%) on ABTS ([2]; 925 μM): 99.1%

Compound: Cc1ccc(S(=O)(=O)NNC(=O)c2ccc[n+](CC(=O)Nc3ccccc3)c2)cc1.[Cl-] [Compound 27, 1-(2-phenylamino-2-oxoethyl)-3-((4-methylphenyl)sulfonyl hydrazinocarbonyl)pyridinium chloride]
- Relative Free Radical Scavenging Activity (%) on ABTS ([2]; 11.5 μM): 43.9%
- Relative Free Radical Scavenging Activity (%) on ABTS ([2]; 23.0 μM): 55.5%
- Relative Free Radical Scavenging Activity (%) on ABTS ([2]; 46.0 μM): 75.3%
- Relative Free Radical Scavenging Activity (%) on ABTS ([2]; 92.5 μM): 99.6%
- Relative Free Radical Scavenging Activity (%) on ABTS ([2]; 925 μM): 100%

Compound: CCCCNC(=O)c1ccc[n+](CC(=O)c2ccc(Cl)cc2Cl)c1.[Br-] [Compound 97, 1-(2-(2,4-Dichlorophenyl)-2-oxoethyl)-3-(n-butylamino-carbonyl)pyridinium bromide]
- Relative Free Radical Scavenging Activity (%) on ABTS ([2]; 11.5 μM): 16.5%
- Relative Free Radical Scavenging Activity (%) on ABTS ([2]; 23.0 μM): 27%
- Relative Free Radical Scavenging Activity (%) on ABTS ([2]; 46.0 μM): 37.8%
- Relative Free Radical Scavenging Activity (%) on ABTS ([2]; 92.5 μM): 44.5%
- Relative Free Radical Scavenging Activity (%) on ABTS ([2]; 925 μM): 97.8%

Compound: O=C=Nc1ccc[n+](CC(=O)c2ccc(Cl)cc2Cl)c1.[Br-] [Compound 82, 3-Carbonylamino-1-(2-(2,4-dichlorophenyl)-2-oxoethyl)-pyridinium bromide]
- Relative Free Radical Scavenging Activity (%) on ABTS ([2]; 11.5 μM): 26.0%
- Relative Free Radical Scavenging Activity (%) on ABTS ([2]; 23.0 μM): 44.3%
- Relative Free Radical Scavenging Activity (%) on ABTS ([2]; 46.0 μM): 62.7%
- Relative Free Radical Scavenging Activity (%) on ABTS ([2]; 92.5 μM): 75.5%
- Relative Free Radical Scavenging Activity (%) on ABTS ([2]; 925 μM): 100%

Compound: O=C(NCCOC(=O)c1ccccc1)c1ccc[n+](CC(=O)c2cccs2)c1.[Br-] [Compound 36, 1-(2-thien-2′-yl-2-oxoethyl)-3-[2-(benzoyloxy)ethylaminocarbonyl]-pyridinium bromide]
- Relative Free Radical Scavenging Activity (%) on ABTS ([2]; 11.5 μM): 27.6%
- Relative Free Radical Scavenging Activity (%) on ABTS ([2]; 23.0 μM): 59.2%
- Relative Free Radical Scavenging Activity (%) on ABTS ([2]; 46.0 μM): 74.2%
- Relative Free Radical Scavenging Activity (%) on ABTS ([2]; 92.5 μM): 83.9%
- Relative Free Radical Scavenging Activity (%) on ABTS ([2]; 925 μM): 100%

Reference: patent US20020103228A1, “Composition and method for use of pyridinium derivatives in cosmetic and therapeutic applications” (TORRENT PHARMACEUTICALS LTD., priority 1999, published 2002)
